Results from patent US10093683B2, “Factor XIa inhibitors” (Merck Sharp & Dohme Corp., priority 2014, dated 2018).

What was measured:
Human plasma kallikrein = Human plasma kallikrein (Homo sapiens (Human), UniProt P03952); assay: Kallikrein Assay; type: biochemical; conditions: purified Human plasma kallikrein 0.5 nM, Acetyl-K-P-R-AFC, pH 7.4; Ki from IC50 by Cheng Prusoff
Summary of the method: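 Purified human plasma kallikrein (0.5 nM final) with Acetyl-K-P-R-AFC substrate ([…]) in 50 mM HEPES pH 7.4, 150 mM NaCl, 5 mM CaCl2, 0.1% PEG 8000, after enzyme-inhibitor equilibration. Fluorescence (405 ex/510 em) under linear conditions; IC50 from four-parameter fit, converted to Ki by Cheng-Prusoff.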

human Factor XIa = human Factor XIa (Homo sapiens (Human), UniProt P03951); assay: Factor XIa Assay; type: biochemical; conditions: read-out: FXIa Ki
Chain of human Factor XIa (P03951 388-625): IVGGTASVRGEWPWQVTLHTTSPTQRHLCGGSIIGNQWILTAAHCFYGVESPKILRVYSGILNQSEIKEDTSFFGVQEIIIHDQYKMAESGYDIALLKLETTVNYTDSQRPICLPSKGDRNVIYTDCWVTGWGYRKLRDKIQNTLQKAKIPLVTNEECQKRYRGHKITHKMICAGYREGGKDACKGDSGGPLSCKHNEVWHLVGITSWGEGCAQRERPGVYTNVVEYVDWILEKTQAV
Chain of human Factor XIa (P03951 19-387 partner): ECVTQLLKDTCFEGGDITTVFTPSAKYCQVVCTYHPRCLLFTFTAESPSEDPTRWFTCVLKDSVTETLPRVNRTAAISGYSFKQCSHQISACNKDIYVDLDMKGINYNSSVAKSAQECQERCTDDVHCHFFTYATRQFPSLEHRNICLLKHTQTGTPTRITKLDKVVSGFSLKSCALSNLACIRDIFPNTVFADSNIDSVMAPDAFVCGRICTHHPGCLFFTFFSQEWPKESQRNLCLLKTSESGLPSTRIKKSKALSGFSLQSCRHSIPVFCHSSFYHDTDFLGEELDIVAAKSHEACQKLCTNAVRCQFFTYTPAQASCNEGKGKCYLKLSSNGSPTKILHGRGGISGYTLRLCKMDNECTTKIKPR
Summary of the method: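 Ki derived from the dependence of Vo/Vi on inhibitor concentration under a competitive-inhibition model, after pre-equilibration of enzyme and inhibitor. Reaction: 40 pM human FXIa, 100 μM Z-Gly-Pro-Arg-AFC, HEPES 50 mM pH 7.4 with NaCl, CaCl2 and PEG 8000; run at room temperature or 37° C.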

Chain of Human plasma kallikrein (P03952 391-638): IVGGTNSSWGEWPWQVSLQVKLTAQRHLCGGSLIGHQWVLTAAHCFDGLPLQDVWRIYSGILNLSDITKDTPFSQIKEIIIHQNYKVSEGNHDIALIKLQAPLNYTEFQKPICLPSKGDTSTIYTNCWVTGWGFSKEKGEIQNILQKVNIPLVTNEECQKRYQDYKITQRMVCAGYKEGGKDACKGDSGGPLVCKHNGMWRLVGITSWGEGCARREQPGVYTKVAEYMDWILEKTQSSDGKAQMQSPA
Chain of Human plasma kallikrein (P03952 20-390 partner): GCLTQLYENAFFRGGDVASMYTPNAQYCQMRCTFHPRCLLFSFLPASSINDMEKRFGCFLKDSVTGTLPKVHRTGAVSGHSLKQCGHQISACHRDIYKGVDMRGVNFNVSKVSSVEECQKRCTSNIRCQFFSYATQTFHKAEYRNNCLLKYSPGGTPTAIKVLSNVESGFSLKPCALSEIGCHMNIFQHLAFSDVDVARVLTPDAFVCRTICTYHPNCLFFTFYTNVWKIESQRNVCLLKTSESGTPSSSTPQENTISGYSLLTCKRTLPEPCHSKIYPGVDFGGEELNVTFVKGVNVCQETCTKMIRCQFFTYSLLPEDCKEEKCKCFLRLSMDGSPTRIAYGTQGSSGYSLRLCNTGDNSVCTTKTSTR

| Ki (Human plasma kallikrein) [nM] | Ki (human Factor XIa) [nM] | Structure (SMILES) |
| --- | --- | --- |
| 2.72 | 17.3 | COCC(=O)Nc1ccc(C(=O)N[C@@H](Cc2ccccc2)C(=O)N2CCC[C@@]3(C2)OC(=O)Nc2ccc(Cl)c(F)c23)cc1 [Example 230, N-((S)-1-((R)-6-chloro-5-fluoro-2-oxo-1,2-dihydrospiro[benzo[d][1,3]oxazine-4,3′-piperidin]-1′-yl)-1-oxo-3-phenylpropan-2-yl)-4-(2-methoxyacetamido)benzamide] |
| 4.74 | 35.1 | CC(C)OC(=O)Nc1ccc(C(=O)N[C@@H](Cc2ccccc2)C(=O)N2CCC[C@@]3(C2)OC(=O)Nc2ccc(Cl)c(F)c23)cc1 [Example 231, isopropyl (4-(((S)-1-((R)-6-chloro-5-fluoro-2-oxo-1,2-dihydrospiro[benzo[d][1,3]oxazine-4,3′-piperidin]-1′-yl)-1-oxo-3-phenylpropan-2-yl)carbamoyl)phenyl)carbamate] |
| 2.44 | 7.88 | O=C1Nc2ccc(Cl)c(F)c2[C@@]2(CCCN(C(=O)[C@H](Cc3ccccc3)NC(=O)c3ccc(B(O)O)s3)C2)O1 [Example 233] |
| 0.87 | 1.26 | O=C1Nc2ccc(Cl)c(F)c2[C@@]2(CCCN(C(=O)[C@H](Cc3ccccc3)NC(=O)c3ccc(-c4ncc[nH]4)s3)C2)O1 [Example 235] |
| 1.49 | 4.28 | CC(=O)Nc1ccc(C(=O)N[C@@H](Cc2ccccc2)C(=O)N2CCC[C@@]3(C2)OC(=O)Nc2ccc(Cl)c(F)c23)cc1 [Example 240, 4-acetamido-N-((S)-1-((R)-6-chloro-5-fluoro-2-oxo-1,2-dihydrospiro[benzo[d][1,3]oxazine-4,3′-piperidin]-1′-yl)-1-oxo-3-phenylpropan-2-yl)benzamide] |
| 2.13 | 53.9 | COC(=O)NCc1ccc(C(=O)N[C@@H](Cc2ccccc2)C(=O)N2CCC[C@@]3(C2)OC(=O)Nc2ccc(Cl)c(F)c23)cc1 [Example 241, methyl (4-(((S)-1-((R)-6-chloro-5-fluoro-2-oxo-1,2-dihydrospiro[benzo[d][1,3]oxazine-4,3′-piperidin]-1′-yl)-1-oxo-3-phenylpropan-2-yl)carbamoyl)benzyl)carbamate] |
| 0.65 | 0.97 | NC(=O)c1ccc(C(=O)N[C@@H](Cc2ccccc2)C(=O)N2CCC[C@@]3(C2)OC(=O)Nc2ccc(Cl)c(F)c23)s1 [Example 245] |
| < 1.36 | 2.02 | Cc1[nH]c2ccc(C(=O)N[C@@H](Cc3ccccc3)C(=O)N3CCC[C@@]4(C3)OC(=O)Nc3ccc(Cl)cc34)cc2c1C(=O)O [Example 249] |
| 13.3 | 41.9 | Cc1cc2cc(C(=O)N[C@@H](Cc3ccccc3)C(=O)N3CCC[C@@]4(C3)OC(=O)Nc3ccc(Cl)cc34)ccc2[nH]1 [Example 250] |
| 31 | > 875 | O=C1Nc2ccc(Cl)c(F)c2[C@@]2(CCCN(C(=O)[C@H](Cc3ccccc3)NC(=O)c3ccc4[nH]nc(C(F)(F)F)c4c3)C2)O1 [Example 256, N—((S)-1-((R)-6-chloro-5-fluoro-2-oxo-1,2-dihydrospiro[benzo[d][1,3]oxazine-4,3′-piperidin]-1′-yl)-1-oxo-3-phenylpropan-2-yl)-3-(trifluoromethyl)-1H-indazole-5-carboxamide] |
| 0.57 | 0.78 | O=C1Nc2ccc(Cl)c(F)c2[C@@]2(CCCN(C(=O)[C@H](Cc3ccccc3)NC(=O)c3ccc4[nH]c(=O)ccc4c3)C2)O1 [Example 257] |

The next lines start with the compound.

| Structure (SMILES) | Ki (Human plasma kallikrein) [nM] | Ki (human Factor XIa) [nM] |
| --- | --- | --- |
| COC(=O)n1nc(N)c2ccc(C(=O)N[C@@H](Cc3ccccc3)C(=O)N3CC[C@@]4(C3)OC(=O)Nc3ccc(Cl)cc34)cc21 [Example 226, Methyl 3-amino-6-(((S)-1-((R)-6-chloro-2-oxo-1,2-dihydrospiro[benzo[d][1,3]oxazine-4,3′-pyrrolidin]-1′-yl)-1-oxo-3-phenylpropan-2-yl)carbamoyl)-1H-indazole-1-carboxylate] | 23.2 | 18.1 |
| COC(=O)Nc1n[nH]c2cc(C(=O)N[C@@H](Cc3ccccc3)C(=O)N3CC[C@@]4(C3)OC(=O)Nc3ccc(Cl)cc34)ccc12 [Example 227, methyl (6-(((S)-1-((R)-6-chloro-2-oxo-1,2-dihydrospiro[benzo[d][1,3]oxazine-4,3′-pyrrolidin]-1′-yl)-1-oxo-3-phenylpropan-2-yl)carbamoyl)-1H-indazol-3-yl)carbamate] | 5 | 9 |
| O=C1Nc2ccc(Cl)cc2[C@@]2(CCN(C(=O)[C@H](Cc3ccccc3)NC(=O)c3ccc4[nH]c(=O)[nH]c(=O)c4c3)C2)O1 [Example 228] | 19.3 | 17.1 |
| COC(=O)Nc1cnc(C(=O)N[C@@H](Cc2ccccc2)C(=O)N2CCC[C@@]3(C2)OC(=O)Nc2ccc(Cl)c(F)c23)nc1 [Example 234] | 3.03 | 16.9 |
| O=C1Nc2ccc(Cl)c(F)c2[C@@]2(CCCN(C(=O)[C@H](CC3CC3)NC(=O)c3ccc(-c4ncc[nH]4)s3)C2)O1 [Example 237] | 0.96 | 5.85 |
| O=C1CCc2cc(C(=O)N[C@@H](CC3CC3)C(=O)N3CCC[C@@]4(C3)OC(=O)Nc3ccc(Cl)c(F)c34)ccc2N1 [Example 251] | < 1.36 | 5.72 |
| Nc1n[nH]c2cc(C(=O)N[C@@H](CC3CC3)C(=O)N3CCC[C@@]4(C3)OC(=O)Nc3ccc(Cl)c(F)c34)ccc12 [Example 254] | 0.83 | 2.11 |
| O=C1Nc2ccc(Cl)c(F)c2[C@@]2(CCCN(C(=O)[C@H](CC3CC3)NC(=O)c3ccc4[nH]c(=O)ccc4c3)C2)O1 [Example 255] | 0.45 | 4 |
| Nc1n[nH]c2cc(C(=O)N[C@@H](Cc3ccncc3)C(=O)N3CC[C@@]4(C3)OC(=O)Nc3ccc(Cl)cc34)ccc12 [Example 258] | 4.08 | 1.73 |
| Nc1cc(C(=O)N[C@@H](Cc2ccccc2)C(=O)N2CCC3(C2)OC(=O)Nc2ccc(Cl)cc23)cc2[nH]cnc12 (stereo partly shown) [Example 260] | 130 | 77.9 |
| Nc1n[nH]c2cc(C(=O)N[C@@H](CC(=O)N3CCC3)C(=O)N3CCC[C@@]4(C3)OC(=O)Nc3ccc(Cl)cc34)ccc12 [Example 266] | 1.22 | 3.82 |
| O=C1Nc2ccc(Cl)c(F)c2[C@@]2(CCCN(C(=O)[C@H](Cc3ccc(F)cc3)NC(=O)c3cc(F)c(C(=O)C(=O)O)s3)C2)O1 [Example 267, 2-(5-(((S)-1-((R)-6-chloro-5-fluoro-2-oxo-1,2-dihydrospiro[benzo[d][1,3]oxazine-4,3′-piperidin]-1′-yl)-3-(4-fluorophenyl)-1-oxopropan-2-yl)carbamoyl)-3-fluorothiophen-2-yl)-2-oxoacetic acid] | 0.29 | 0.7 |
| Nc1n[nH]c2cc(C(=O)N[C@@H](CC(=O)N3CCCC3)C(=O)N3CCC[C@@]4(C3)OC(=O)Nc3ccc(Cl)cc34)ccc12 [Example 268] | 0.9 | 0.85 |
| CC(C)(O)C[C@H](NC(=O)c1ccc2c(N)n[nH]c2c1)C(=O)N1CCC[C@@]2(C1)OC(=O)Nc1ccc(Cl)cc12 [Example 269] | 3 | 5 |
| O=C(Nc1ccc(C(=O)N[C@@H](Cc2ccc(F)cc2)C(=O)N2CCC[C@@]3(C2)OC(=O)Nc2ccc(Cl)c(F)c23)cc1)OCCc1nnn[nH]1 [Example 274, 2-(1H-tetrazol-5-yl)ethyl (4-(((S)-1-((R)-6-chloro-5-fluoro-2-oxo-1,2-dihydrospiro[benzo[d][1,3]oxazine-4,3′-piperidin]-1′-yl)-3-(4-fluorophenyl)-1-oxopropan-2-yl)carbamoyl)phenyl)carbamate] | 0.65 | 3.22 |
